Active and inactive are the calls of the source. The calls are words filed in the database; no cut-off is given here.
Columns and labels:
[1] = target: Keap1/Nrf2 (Homo sapiens) (UniProt Q16236+Q14145); experiment: Binding affinity to human Keap1-Nrf2 protein-protein interaction assessed as dissociation constant (Kd2) incubated for 60 mins by fluorescent polarization assay
[2] = Cytotoxicity against mouse peritoneal macrophages assessed as reduction in cell viability incubated for 24 hrs by Cell titer-blue assay; assay type: toxicity, cell-based, Peritoneal macrophage
[3] = test system: Peritoneal macrophage; experiment: Antiinflammatory activity in mouse peritoneal macrophages assessed as fold reduction in LPS-induced TNFalpha level at 10 uM incubated for 4 hrs by ELISA method; assay type: functional
[4] = Aqueous solubility of the compound in PBS at pH 2 at 2 mg incubated for 24 hrs by HPLC-UV analysis; assay type: physicochemical
[5] = Aqueous solubility of the compound in PBS at pH 7 at 2 mg incubated for 24 hrs by HPLC-UV analysis; assay type: physicochemical
[6] = Aqueous solubility of the compound in PBS at pH 7.4 at 2 mg incubated for 24 hrs by HPLC-UV analysis; assay type: physicochemical
[7] = test system: Peritoneal macrophage; experiment: Antiinflammatory activity in mouse peritoneal macrophages assessed as reduction in LPS-induced IL6 level at 10 uM incubated for 4 hrs by ELISA method; assay type: functional, cell-based

Keap1/Nrf2 (Homo sapiens), sequence (Q14145 whole entry, looked up): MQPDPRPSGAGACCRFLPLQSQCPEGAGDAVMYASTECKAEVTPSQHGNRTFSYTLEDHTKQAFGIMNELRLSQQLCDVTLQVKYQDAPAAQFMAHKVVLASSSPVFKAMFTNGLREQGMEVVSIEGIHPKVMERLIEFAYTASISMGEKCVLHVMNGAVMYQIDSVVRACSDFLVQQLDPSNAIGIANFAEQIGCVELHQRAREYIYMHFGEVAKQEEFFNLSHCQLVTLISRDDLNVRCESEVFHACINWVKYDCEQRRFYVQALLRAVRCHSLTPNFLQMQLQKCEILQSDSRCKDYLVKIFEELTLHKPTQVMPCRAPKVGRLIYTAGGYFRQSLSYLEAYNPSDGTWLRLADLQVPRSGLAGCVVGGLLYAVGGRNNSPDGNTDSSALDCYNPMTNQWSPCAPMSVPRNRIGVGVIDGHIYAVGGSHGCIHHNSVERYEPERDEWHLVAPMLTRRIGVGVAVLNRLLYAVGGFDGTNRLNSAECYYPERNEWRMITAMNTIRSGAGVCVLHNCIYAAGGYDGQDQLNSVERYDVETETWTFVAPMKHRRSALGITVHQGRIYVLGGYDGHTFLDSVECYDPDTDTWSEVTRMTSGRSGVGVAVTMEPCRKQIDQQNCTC
Keap1/Nrf2 (Homo sapiens), sequence (Q16236 whole entry, looked up): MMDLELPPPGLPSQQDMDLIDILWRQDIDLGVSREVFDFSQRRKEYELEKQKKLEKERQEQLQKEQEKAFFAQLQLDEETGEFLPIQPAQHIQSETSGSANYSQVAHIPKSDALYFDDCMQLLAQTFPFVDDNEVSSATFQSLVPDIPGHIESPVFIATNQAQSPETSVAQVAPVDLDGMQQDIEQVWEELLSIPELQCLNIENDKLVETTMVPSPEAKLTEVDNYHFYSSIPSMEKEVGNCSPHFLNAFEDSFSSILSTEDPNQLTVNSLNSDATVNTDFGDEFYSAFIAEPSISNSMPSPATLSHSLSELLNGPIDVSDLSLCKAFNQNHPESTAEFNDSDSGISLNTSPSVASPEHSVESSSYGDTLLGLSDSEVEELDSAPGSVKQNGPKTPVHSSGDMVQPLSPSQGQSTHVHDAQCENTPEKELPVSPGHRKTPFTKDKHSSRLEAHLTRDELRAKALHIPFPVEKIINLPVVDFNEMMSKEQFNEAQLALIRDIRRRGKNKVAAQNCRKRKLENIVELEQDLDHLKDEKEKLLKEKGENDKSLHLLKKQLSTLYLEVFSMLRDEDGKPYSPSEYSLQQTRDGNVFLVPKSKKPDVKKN

| Structure (SMILES) | K [1] | CC50 at 24 h [2] | fold change (FC) [3] | solubility at 24 h [4] | solubility at 24 h [5] | solubility at 24 h [6] | Activity [7] |
| --- | --- | --- | --- | --- | --- | --- | --- |
| COc1ccc(S(=O)(=O)N(CC(N)=O)c2ccc(N(CC(N)=O)S(=O)(=O)c3ccc(NC(=O)CCCN)cc3)c3ccccc23)cc1 | 630 nM | > 100 µM | <=0.5 | – | – | – | – |
| COc1ccc(S(=O)(=O)N(CC(N)=O)c2ccc(N(CC(N)=O)S(=O)(=O)c3ccc(NC(=O)[C@@H](N)Cc4ccccc4)cc3)c3ccccc23)cc1 | 820 nM | > 100 µM | <=0.5 | – | – | – | – |
| COc1ccc(S(=O)(=O)N(CC(N)=O)c2ccc(N(CC(N)=O)S(=O)(=O)c3ccc(NC(=O)[C@H]4CCN4)cc3)c3ccccc23)cc1.O=C(O)/C=C\C(=O)O | – | – | – | 46.3 µg/mL | 32.3 µg/mL | 34.7 µg/mL | – |
| COc1ccc(S(=O)(=O)N(CC(N)=O)c2ccc(N(CC(N)=O)S(=O)(=O)c3ccc(NC(=O)[C@@H](C)N)cc3)c3ccccc23)cc1 | 230 nM | > 100 µM | <=0.5 | – | – | – | Active |
| CC(=O)O.COc1ccc(S(=O)(=O)N(CC(N)=O)c2ccc(N(CC(N)=O)S(=O)(=O)c3ccc(NC(=O)[C@H]4CCN4)cc3)c3ccccc23)cc1 | – | – | – | 311 µg/mL | 162 µg/mL | 160 µg/mL | – |
| CNCC(=O)Nc1ccc(S(=O)(=O)N(CC(N)=O)c2ccc(N(CC(N)=O)S(=O)(=O)c3ccc(OC)cc3)c3ccccc23)cc1 | 250 nM | > 100 µM | <=0.5 | – | – | – | Active |
| COC[C@@H](N)C(=O)Nc1ccc(S(=O)(=O)N(CC(N)=O)c2ccc(N(CC(N)=O)S(=O)(=O)c3ccc(OC)cc3)c3ccccc23)cc1 | 280 nM | > 100 µM | <=0.5 | – | – | – | – |
| COc1ccc(S(=O)(=O)N(CC(N)=O)c2ccc(N(CC(N)=O)S(=O)(=O)c3ccc(NC(=O)C4CCNC4)cc3)c3ccccc23)cc1 (centres undefined) | 280 nM | > 100 µM | <=0.5 | – | – | – | Active |
| COc1ccc(S(=O)(=O)N(CC(N)=O)c2ccc(N(CC(N)=O)S(=O)(=O)c3ccc(NC(=O)[C@H]4CCN4)cc3)c3ccccc23)cc1.Cl | – | – | – | 1170 µg/mL | 484 µg/mL | 283 µg/mL | – |
| COc1ccc(S(=O)(=O)N(CC(N)=O)c2ccc(N(CC(N)=O)S(=O)(=O)c3ccc(NC(=O)[C@H]4CCN4)cc3)c3ccccc23)cc1.O=C(O)CCC(=O)O | – | – | – | 145 µg/mL | 60.6 µg/mL | 65.6 µg/mL | – |
| COc1ccc(S(=O)(=O)N(CC(N)=O)c2ccc(N(CC(N)=O)S(=O)(=O)c3ccc(NC(=O)[C@H](N)Cc4ccccc4)cc3)c3ccccc23)cc1 | 1170 nM | > 100 µM | <=0.5 | – | – | – | – |
| COc1ccc(S(=O)(=O)N(CC(N)=O)c2ccc(N(CC(N)=O)S(=O)(=O)c3ccc(NC(=O)C4CCN4)cc3)c3ccccc23)cc1 (centres undefined) | 260 nM | > 100 µM | <=0.5 | – | – | – | Active |
| COc1ccc(S(=O)(=O)N(CC(N)=O)c2ccc(N(CC(N)=O)S(=O)(=O)c3ccc(NC(=O)[C@@H]4CCCNC4)cc3)c3ccccc23)cc1 | 270 nM | > 100 µM | <=0.5 | – | – | – | Active |
| COc1ccc(S(=O)(=O)N(CC(N)=O)c2ccc(N(CC(N)=O)S(=O)(=O)c3ccc(NC(=O)[C@@H](N)C(C)C)cc3)c3ccccc23)cc1 | 400 nM | > 100 µM | <=0.5 | – | – | – | – |
| COCC(=O)Nc1ccc(S(=O)(=O)N(CC(N)=O)c2ccc(N(CC(N)=O)S(=O)(=O)c3ccc(OC)cc3)c3ccccc23)cc1 | 550 nM | > 100 µM | <=0.5 | – | – | – | – |
| COc1ccc(S(=O)(=O)N(CC(N)=O)c2ccc(N(CC(N)=O)S(=O)(=O)c3ccc(NC(=O)[C@@H](N)CSC)cc3)c3ccccc23)cc1 | 440 nM | > 100 µM | <=0.5 | – | – | – | – |
| COC[C@H](N)C(=O)Nc1ccc(S(=O)(=O)N(CC(N)=O)c2ccc(N(CC(N)=O)S(=O)(=O)c3ccc(OC)cc3)c3ccccc23)cc1 | 330 nM | > 100 µM | <=0.5 | – | – | – | Active |

| Structure (SMILES) | K [1] | CC50 at 24 h [2] | fold change (FC) [3] | solubility at 24 h [4] | solubility at 24 h [5] | solubility at 24 h [6] | Activity [7] |
| --- | --- | --- | --- | --- | --- | --- | --- |
| COc1ccc(S(=O)(=O)N(CC(N)=O)c2ccc(N(CC(N)=O)S(=O)(=O)c3ccc(NC(=O)CN)cc3)c3ccccc23)cc1 | 250 nM | > 100 µM | <=0.5 | – | – | – | – |
| COc1ccc(S(=O)(=O)N(CC(N)=O)c2ccc(N(CC(N)=O)S(=O)(=O)c3ccc(NC(=O)[C@H]4CCNC4)cc3)c3ccccc23)cc1 | 250 nM | > 100 µM | <=0.5 | – | – | – | Active |
| CCC[C@@H](N)C(=O)Nc1ccc(S(=O)(=O)N(CC(N)=O)c2ccc(N(CC(N)=O)S(=O)(=O)c3ccc(OC)cc3)c3ccccc23)cc1 | 590 nM | > 100 µM | <=0.5 | – | – | – | – |
| COc1ccc(S(=O)(=O)N(CC(N)=O)c2ccc(N(CC(N)=O)S(=O)(=O)c3ccc(NC(=O)CCCCN)cc3)c3ccccc23)cc1 | 270 nM | > 100 µM | <=0.5 | – | – | – | – |
| COc1ccc(S(=O)(=O)N(CC(N)=O)c2ccc(N(CC(N)=O)S(=O)(=O)c3ccc(NC(=O)[C@@H]4CCN4)cc3)c3ccccc23)cc1 | 650 nM | > 100 µM | <=0.5 | – | – | – | – |
| COc1ccc(S(=O)(=O)N(CC(N)=O)c2ccc(N(CC(N)=O)S(=O)(=O)c3ccc(NC(=O)C4CCCNC4)cc3)c3ccccc23)cc1 (centres undefined) | 430 nM | > 100 µM | <=0.5 | – | – | – | – |
| COc1ccc(S(=O)(=O)N(CC(N)=O)c2ccc(N(CC(N)=O)S(=O)(=O)c3ccc(NC(=O)[C@H]4CCCN4)cc3)c3ccccc23)cc1 | 300 nM | > 100 µM | <=0.5 | – | – | – | Active |
| COc1ccc(S(=O)(=O)N(CC(N)=O)c2ccc(N(CC(N)=O)S(=O)(=O)c3ccc(NC(=O)[C@@H]4CCCN4)cc3)c3ccccc23)cc1 | 270 nM | > 100 µM | <=0.5 | – | – | – | Active |
| Br.COc1ccc(S(=O)(=O)N(CC(N)=O)c2ccc(N(CC(N)=O)S(=O)(=O)c3ccc(NC(=O)[C@H]4CCN4)cc3)c3ccccc23)cc1 | – | – | – | 672 µg/mL | 256 µg/mL | 137 µg/mL | – |
| COc1ccc(S(=O)(=O)N(CC(N)=O)c2ccc(N(CC(N)=O)S(=O)(=O)c3ccc(NC(=O)[C@H](C)N)cc3)c3ccccc23)cc1 | 240 nM | > 100 µM | <=0.5 | – | – | – | Active |
| COc1ccc(S(=O)(=O)N(CC(N)=O)c2ccc(N(CC(N)=O)S(=O)(=O)c3ccc(NC(=O)[C@H]4CCN4)cc3)c3ccccc23)cc1.O=C(O)C(F)(F)F | – | – | – | 423 µg/mL | 292 µg/mL | 275 µg/mL | – |
| COc1ccc(S(=O)(=O)N(CC(N)=O)c2ccc(N(CC(N)=O)S(=O)(=O)c3ccc(NC(=O)[C@H](N)C(C)C)cc3)c3ccccc23)cc1 | 810 nM | > 100 µM | <=0.5 | – | – | – | – |
| COc1ccc(S(=O)(=O)N(CC(N)=O)c2ccc(N(CC(N)=O)S(=O)(=O)c3ccc(NC(=O)[C@@H]4CCNC4)cc3)c3ccccc23)cc1 | 240 nM | > 100 µM | <=0.5 | – | – | – | Active |
| COc1ccc(S(=O)(=O)N(CC(N)=O)c2ccc(N(CC(N)=O)S(=O)(=O)c3ccc(NC(=O)[C@H]4CCCNC4)cc3)c3ccccc23)cc1 | 400 nM | > 100 µM | <=0.5 | – | – | – | – |
| COc1ccc(S(=O)(=O)N(CC(N)=O)c2ccc(N(CC(N)=O)S(=O)(=O)c3ccc(NC(=O)CCN)cc3)c3ccccc23)cc1 | 440 nM | > 100 µM | <=0.5 | – | – | – | – |
| CC[C@H](N)C(=O)Nc1ccc(S(=O)(=O)N(CC(N)=O)c2ccc(N(CC(N)=O)S(=O)(=O)c3ccc(OC)cc3)c3ccccc23)cc1 | 530 nM | > 100 µM | <=0.5 | – | – | – | – |
| CC[C@@H](N)C(=O)Nc1ccc(S(=O)(=O)N(CC(N)=O)c2ccc(N(CC(N)=O)S(=O)(=O)c3ccc(OC)cc3)c3ccccc23)cc1 | 320 nM | > 100 µM | <=0.5 | – | – | – | Active |

— ChEMBL document CHEMBL5338809, “Fragment-Based Discovery of Azocyclic Alkyl Naphthalenesulfonamides as Keap1-Nrf2 Inhibitors for Acute Lung Injury Treatment” (J Med Chem, 2023)
